In one series the target is T1, bovine trypsin (Bos taurus, UniProt P00760).
T1 construct: purchased Sigma Aldrich; host or cells: bovine pancreas
T1 sequence (P00760 24-246): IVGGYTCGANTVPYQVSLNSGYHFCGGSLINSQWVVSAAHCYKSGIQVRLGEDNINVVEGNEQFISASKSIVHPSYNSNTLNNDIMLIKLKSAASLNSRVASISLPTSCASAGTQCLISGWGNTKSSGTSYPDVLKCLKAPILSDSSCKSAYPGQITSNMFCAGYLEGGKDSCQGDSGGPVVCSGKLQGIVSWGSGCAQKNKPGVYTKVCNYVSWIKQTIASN
Nature of the series: Fluorescence anisotropy titration of fluorescein-labelled ODNs with increasing trypsin. Conditions: for change of trypsin affinity on lowering salt to 5 mM KCl, 25 mM Hepes, pH 7.4: low salt versus high salt; for Kd: preformed quadruplex, 2 nM ODN. It is filed as binding. The procedure:
The next step was to determine whether the intramolecular quadruplex conformation of AC 1 leads to enhanced affinity towards trypsin as a result of bidentate binding (FIG. 15, pathway A). […] AC 1 and ODNs 2 through 4 were first incubated in the presence of potassium cations to induce the quadruplex fold. The preformed quadruplexes were then incubated with increasing concentrations of trypsin at 25° C. (25 mM KCl, 200 mM NaCl, 25 mM Hepes, pH 7.4) for 30 min. Preliminary fluorescence anisotropy studies were conducted to ascertain that equilibrium was reached after 30 min and that there was no significant quenching of the fluorescein emission. The anisotropy associated with the fluorescein emission was followed at 525 nm (excitation at 495 nm). The resultant binding isotherms (FIG. 14) were fitted using non-linear regression to a 1:1 binding stoichiometry. […] In fact, the dissociation constant was determined to be 8.1×10^−7 M, a value that indicates a greater than 100 and 30 fold binding enhancement when compared to monodentate controls ODN 3 and ODN 2, respectively. […] This dissociation constant is attributed to non-specific interactions between bovine trypsin and ODN 4, since trypsin (pI=10.5) is positively charged at pH=7.4 and thus can potentially associate with the negatively charged DNA backbone. Support for such non-specific interactions comes from incubation of trypsin with ODN 4 where the concentration of salts were decreased to only 5 mM KCl, 25 mM Hepes, pH 7.4 (see, e.g., FIG. 23).
Immediately prior to each fluorescence polarization experiment, fresh stock solutions of trypsin were made in Hepes buffer (20 mM KCl, 200 mM NaCl, 25 mM Hepes, pH 7.4). Concentration of the trypsin in the stock solutions were determined using ultra-violet absorbance at 280 nm (ε=37669 M^−1cm^−1). Serial dilutions from the stock solution of trypsin were made into eppendorf tubes (spanning a range from 1×10^−9 to 1×10^−3M). To these trypsin-containing tubes were added aliquots of ODNs, such that the total concentration of ODNs in each eppendorf tube was 2 nM. After gently agitating, 150 uL from each eppendorf was transferred to respective borosilicate glass culture tubes and the tubes were allowed to equilibrate for 30 minutes at 25° C. (preliminary fluorescence anisotropy studies were conducted to ascertain that equilibrium was reached after 30 min and that there was no significant quenching of the fluorescein emission). Fluorescence polarization at 25° C. was determined on a Molecular Probes Beacon 2000 Fluorescence Polarization Instrument, using 495 and 525 nm narrow band pass filters for excitation and emission, respectively. Values of millipolarization (mP) from the Beacon 2000 were converted to millianisotropy (mA) using equation 1, where A is the anisotropy value, and P is the observed polarization.
1:1 (trypsin:ODN) binding mode: Anisotropy was plotted against trypsin (receptor protein) concentration and fitted to Equation 2 (a single-site model without receptor depletion), wherein Af is the anisotropy of the unbound ODN, Ab is the anisotropy of the bound ODN, Or is the total added ODN concentration (in M units), and Kd is the dissociation constant. Non-linear regression analysis using Origin 8.0 software was used for fitting the experimental data.
Cooperative binding mode: Binding equilibrium best described as cooperative binding was fitted to the Hill equation (Equation 3), where the fluorescence quantum yield of fluorescein is constant and the ODN substrate is limiting. R is the total protein concentration, R1/2 (or [trypsin]1/2) is the protein concentration required for half-maximal binding, and h is the Hill coefficient.

A further series deals with T2, streptavidin (Streptomyces avidinii, UniProt P22629).
T2 construct: purchased Thermo Fisher Scientific (NUNC)
Briefly: Streptavidin-immobilized microplate assay, hemin/H2O2 oxidation of ABTS, absorbance at 414 nm. The conditions noted are these: 5 μM ODN with 5 μM hemin, 1 h incubation, washed, ABTS 2 mM. The procedure: As shown schematically in FIG. 28, streptavidin-immobilized, NUNC 96 well microplates were obtained from Thermo Fisher Scientific. Each well was pre-washed three times with 100 μL of PBS buffer (20 mM NaH2PO4, 30 mM Na2HPO4, 100 mM NaCl, pH 7.4). To each well, 100 μL of sample ODNs (5 μM, previously annealed from 95° C.) with hemin (5 μM) in Hepes buffer (50 mM HEPES, 20 mM KCl, 200 mM NaCl, 1% DMSO, 0.05% Triton X-100, pH 8.0) was incubated for one hour with gentle agitation. Sample ODN solutions were then removed by inversion, and each well washed three times with PBS buffer. Plate wells were then refilled with 98.5 μL of the Hepes buffer containing ABTS (2,2′-azino-bis(3-ethylbenzthiazoline-6-sulphonic acid)). Hydrogen peroxide (2 mM) was then introduced to each well bringing the total assay volume to 100 μL and total ABTS concentration to 2 mM. Visible light absorbance at 414 nm was then immediately followed on a Molecular Devices SpectraMax 190 microplate reader (FIG. 27).

The next series deals with thrombin (Homo sapiens, UniProt P00734). Conditions: literature; cited from earlier work.
Setting [1] is: 5 mM KCl, 25 mM Hepes, pH 7.4, read-out: dissociation constant (Kd) for trypsin, low-salt conditions.
[2] abbreviates: high salt (20 or 25 mM KCl, 200 mM NaCl, 25 mM Hepes, pH 7.4), 25° C., 1:1 fit, read-out: dissociation constant (Kd) for trypsin.

The term Kd denotes the concentration at which binding is half-saturated.

Read-outs that look alike come from different tables or passages of the source.

T2 sequence (P22629 25-183): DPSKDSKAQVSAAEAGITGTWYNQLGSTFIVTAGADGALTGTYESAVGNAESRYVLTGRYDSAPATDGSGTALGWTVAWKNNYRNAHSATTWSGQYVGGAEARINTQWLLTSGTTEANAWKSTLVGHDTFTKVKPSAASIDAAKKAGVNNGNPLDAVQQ

For “AC 1 (TTGGTTGGTGTGGTTGGT; 5' dT fluorescein conjugate, ba and ipt arms attached, further chemistry not given here)”, in the series with bovine trypsin (Kd of quadruplex versus [trypsin]1/2 of duplex), the “potency of quadruplex form in binding trypsin relative to double helical structure (duplex 1:5)” value was “about 20 times”. Moreover, the “change of trypsin affinity on lowering salt to 5 mM KCl, 25 mM Hepes, pH 7.4” value with bovine trypsin was “only slight change in affinity”. The Kd with bovine trypsin (setting [1]) is 2.8 µM. Also, the dissociation constant (Kd) in the series with bovine trypsin (setting [2]) came out at 0.81 µM. Besides, in the series with bovine trypsin (ratio of Kd values, high salt), the “binding enhancement compared to monodentate control ODN 2” value is over 30 fold and the “binding enhancement compared to monodentate control ODN 3” value is recorded as “greater than 100 fold”.

Consider “AC-X1: hemin binding aptamer core (SEQ ID NO:9) with biotin as small molecule handle for streptavidin (TGGGTAGGGCGGGTTGGGT; DNA, backbone and methylation of C not given here; biotin tethered via linker)”, for which, in the series with streptavidin, the “absorbance change at 414 nm versus control HBA well” value is “greater absorbance change”.

Turning to “ODN 2 (TTGGTTGGTGTGGTTGGT; 5' ba arm attached, fluorescein-dT conjugate, further chemistry not given here)”, in the series with bovine trypsin (setting [2]), the Kd came out at 29 µM.

For “ODN 3 (TTGGTTGGTGTGGTTGGT; 3' ipt arm attached, fluorescein-dT conjugate, further chemistry not given here)”, in the series with bovine trypsin (setting [2]), the Kd turned out to be 90 µM.

As to “ODN 4: 5′-TTGGTTGGTGTGGTTGGT-3′, no arms, 5′ terminal dT bearing fluorescein; negative control (listed as DNA, chemistry not fully specified)”, the “change of trypsin affinity on lowering salt to 5 mM KCl, 25 mM Hepes, pH 7.4” value with bovine trypsin is reported as “significant decrease in the Kd”. The values for the Kd in the series with bovine trypsin (setting [1]) and with bovine trypsin (setting [2]) were 31 µM and 2900 µM, respectively.

Take “thrombin binding aptamer: core sequence 5′-GGTTGGTGTGGTTGG-3′ (SEQ ID NO:6)”: the “dissociation constant (Kd) of complex with thrombin” value in the series with thrombin is given as “micromolar range”.

These data come from patent US8877908B2, “Stimulus-responsive apta chelamers” (The Administrators of the Tulane Educational Fund, priority 2008, dated 2014).
